Data taken from patent US6426360B1, “4,5-substituted imidazolyl compounds for the treatment of inflammation” (G D Searle & Co., priority 1994, dated 2002).
Marks after values point to notes of the source that are not given here.

Experiments:
Human COX II = target: T1, Human COX II (Homo sapiens, UniProt P35354); assay: COX II activity in vitro (PGE2 ELISA, recombinant enzyme); format: biochemical; conditions: arachidonic acid 10 μM, pre-incubation 10-20 minutes; read-out: Human COX II ID50
T1 construct: A 2.0 kb fragment containing the coding region of either human or murine COX-I or human or murine COX-II; made in house; host or cells: SF9 insect cells (recombinant baculovirus, transfer vector pVL1393)
T1 sequence (P35354 18-604): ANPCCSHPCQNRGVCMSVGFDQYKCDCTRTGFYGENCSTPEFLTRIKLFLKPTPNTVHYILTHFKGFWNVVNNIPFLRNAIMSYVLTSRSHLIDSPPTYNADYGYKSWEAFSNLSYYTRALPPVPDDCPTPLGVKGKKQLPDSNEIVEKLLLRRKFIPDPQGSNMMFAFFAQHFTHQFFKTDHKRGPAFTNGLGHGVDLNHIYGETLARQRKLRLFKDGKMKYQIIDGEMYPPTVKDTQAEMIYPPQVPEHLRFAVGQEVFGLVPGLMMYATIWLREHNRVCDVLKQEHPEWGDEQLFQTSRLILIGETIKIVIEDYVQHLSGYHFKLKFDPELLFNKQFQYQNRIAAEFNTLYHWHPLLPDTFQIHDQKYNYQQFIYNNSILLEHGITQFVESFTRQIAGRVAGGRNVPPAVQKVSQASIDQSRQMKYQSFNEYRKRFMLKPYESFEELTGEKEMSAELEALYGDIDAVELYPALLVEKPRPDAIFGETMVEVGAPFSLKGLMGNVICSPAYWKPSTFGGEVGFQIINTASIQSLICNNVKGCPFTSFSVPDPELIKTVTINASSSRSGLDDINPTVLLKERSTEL

[1] = test system: carrageenan-induced hyperalgesic foot withdrawal; assay: Rat Carrageenan-induced Analgesia Test; format: in vivo; conditions: oral, 3 h after carrageenan
Procedure: The analgesia test using rat carrageenan was performed with materials, reagents and procedures essentially as described by Hargreaves, et al., (Pain, 32, 77 (1988)). Male Sprague-Dawley rats were treated as previously described for the Carrageenan Foot Pad Edema test. Three hours after the injection of the carrageenan, the rats were placed in a special plexiglass container with a transparent floor having a high intensity lamp as a radiant heat source, positionable under the floor. After an initial twenty minute period, thermal stimulation was begun on either the injected foot or on the contralateral uninjected foot. A photoelectric cell turned off the lamp and timer when light was interrupted by paw withdrawal. The time until the rat withdraws its foot was then measured. The withdrawal latency in seconds was determined for the control and drug-treated groups, and percent inhibition of the hyperalgesic foot withdrawal determined.

Human COX I = target: T2, Human COX I (Homo sapiens, UniProt P23219); assay: COX I activity in vitro (PGE2 ELISA, recombinant enzyme); format: biochemical; conditions: arachidonic acid 10 μM, pre-incubation 10-20 minutes; read-out: Human COX I ID50
T2 construct: A 2.0 kb fragment containing the coding region of either human or murine COX-I or human or murine COX-II; made in house; host or cells: SF9 insect cells (recombinant baculovirus, transfer vector pVL1393)

carrageenan foot edema = assay: Rat Carrageenan Foot Pad Edema Test; format: in vivo; conditions: 30 mg/kg body weight, oral, dosed 1 h before carrageenan, foot volume 3 h after carrageenan
Procedure: The carrageenan foot edema test was performed with materials, reagents and procedures essentially as described by Winter, et al., (Proc. Soc. Exp. Biol. Med., 111, 544 (1962)). Male Sprague-Dawley rats were selected in each group so that the average body weight was as close as possible. Rats were fasted with free access to water for over sixteen hours prior to the test. The rats were dosed orally (1 ml) with compounds suspended in vehicle containing 0.5% methylcellulose and 0.025% surfactant, or with vehicle alone. One hour later a subplantar injection of 0.1 ml of 1% solution of carrageenan/sterile 0.9% saline was administered and the volume of the injected foot was measured with a displacement plethysmometer connected to a pressure transducer with a digital indicator. Three hours after the injection of the carrageenan, the volume of the foot was again measured. The average foot swelling in a group of drug-treated animals was compared with that of a group of placebo-treated animals and the. percentage inhibition of edema was determined (Otterness and Bliven, Laboratory Models for Testing NSAIDs, in Non-steroidal Anti-Inflammatory Drugs, (J. Lombardino, ed. 1985)).

T2 sequence (P23219 24-599): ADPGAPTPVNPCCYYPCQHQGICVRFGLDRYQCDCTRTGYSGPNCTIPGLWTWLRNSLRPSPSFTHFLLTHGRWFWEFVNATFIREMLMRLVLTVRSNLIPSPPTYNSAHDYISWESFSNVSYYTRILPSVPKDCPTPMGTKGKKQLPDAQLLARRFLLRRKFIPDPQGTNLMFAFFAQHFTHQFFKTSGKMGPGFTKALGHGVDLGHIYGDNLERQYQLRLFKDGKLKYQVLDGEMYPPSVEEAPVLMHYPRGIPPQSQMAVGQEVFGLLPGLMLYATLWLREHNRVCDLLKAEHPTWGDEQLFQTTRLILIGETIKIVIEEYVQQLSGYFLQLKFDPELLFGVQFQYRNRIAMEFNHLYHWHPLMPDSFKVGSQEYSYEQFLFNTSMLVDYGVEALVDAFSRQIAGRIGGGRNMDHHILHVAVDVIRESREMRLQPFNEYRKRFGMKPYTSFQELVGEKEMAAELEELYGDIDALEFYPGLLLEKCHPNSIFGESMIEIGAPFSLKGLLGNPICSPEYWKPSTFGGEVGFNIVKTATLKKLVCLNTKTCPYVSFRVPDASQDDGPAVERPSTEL

Row | IC50 (Human COX II) [nM] | IC50 (Human COX I) [nM] | melting point | SMILES | ANALGESIA % Inhibition ([1]; 30 mg/kg body weight) [%] | RAT PAW EDEMA % Inhibition (carrageenan foot edema) [%] | ANALGESIA % Inhibition ([1]; 50 mg/kg body weight)
1 | 200 | > 100000 | 249 to 250 °C (dec.) | CS(=O)(=O)c1ccc(-c2nc(C(F)(F)F)[nH]c2-c2ccc(F)cc2)cc1 [Example 1, 5-(4-Fluorophenyl)-4-(4-methylsulfonylphenyl)-2-trifluoromethyl-1H-imidazole] | 25 | 22 | 
2 | 200 | > 100000 | 257 °C | CC(=O)n1c(C(F)(F)F)nc(-c2ccc(S(C)(=O)=O)cc2)c1-c1cc(C)cc(Cl)c1 [Example 58, 1-[5-(3-Chloro-5-methylphenyl)-4-[4-(methylsulfonyl)phenyl]-2-(trifluoromethyl)-1H-imidazol-1-yl]ethanone] |  | 14 | 
3 | 1400 | > 100000 | 95 to 97 °C | CS(=O)(=O)c1ccc(-c2nc(C(F)(F)F)[nH]c2-c2cccs2)cc1 [Example 70, 4-[4-(Methylsulfonyl)phenyl]-5-(2-thiophenyl)-2-(trifluoromethyl)-1H-imidazole] |  | 27 | 29* %
